A word on the EC50: it is the concentration giving half of the maximal effect. For orientation: CC50 means the concentration at which the toxic effect on the cells reaches its halfway point.

Molecules are shown by their SMILES. Read-outs that look alike come from different tables or passages of the source.

Experimental findings from patent US20230083012A1, “DIHYDROPYRIMIDINE DERIVATIVES AND USES THEREOF IN THE TREATMENT OF HBV INFECTION OR OF HBV-INDUCED DISEASES” (priority 2019, published 2023) are described below.

The subject of one data set is HBV. Put plainly: Anti-HBV activity in HepG2.2.15 cells (HBV DNA in culture medium by qPCR). To be noted: HepG2.2.15 cells, 6 days treatment, HBV DNA in culture medium quantified by real-time PCR, read-out: EC50. The format is cell-based. The method in brief:
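Secreted HBV DNA was measured by real-time PCR after 6-day compound exposure of HepG2.2.15 cells (2% FBS, 37 °C, re-dosed after 3 days), giving EC50 from 8-point 1:3 series starting at 10 or 1 uM. Cytotoxicity (CC50) run separately at lower cell density, top 100 uM.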
(In general: Real-time PCR tracks product formation cycle by cycle.)

Data set [1] is described as follows: Cytotoxicity determination in HepG2.2.15 cells (CCK-8 cell viability). To be noted: human, 6 days treatment, CCK-8 assay, highest concentration 100 uM. The format is cell-based. The method in brief:
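Viability measured by CCK-8 absorbance (450 nm, 630 nm reference, 2.5 h at 37° C) after six days of treatment, medium and compound renewed on day 3. Top concentration 100 uM, eight threefold dilutions in triplicate; cells plated at 5,000/well in 2% FBS medium; CC50 derived.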
For orientation: Tetrazolium dyes change colour on reduction, which living cells bring about.

Where [2] appears, read: Hepatitis B virus, HepG2.2.15, 144 h.

For `CCOC(=O)C1=C(CN2CC(F)(F)[C@H]3[C@@H]2CCN3C[C@@H]2CC[C@@H]2C(=O)O)NC(c2nccs2)=N[C@H]1c1cccc(F)c1C` (single isomer, unassigned) [Compound 130A], in the data set on HBV (setting [2]), the concentration giving a half-maximal response (EC50) was determined as 0.0076 µM. The CC50 at 6 days in data set [1] amounted to 22.4 µM.
The corresponding values for `CCOC(=O)C1=C(CN2CC(F)(F)[C@H]3[C@@H]2CCN3C[C@H]2CC[C@H]2C(=O)O)NC(c2nccs2)=N[C@H]1c1cccc(F)c1C` (single isomer, unassigned) [Compound 130B] are less than 0.0005 µM and 18.2 µM.
On to `COC(=O)C1=C(CN2CC(F)(F)[C@H]3[C@@H]2CCN3C[C@@H](C)C(=O)O)NC(c2nccs2)=N[C@H]1c1cccc(F)c1C` (single isomer, unassigned) [Compound 131A, 3-((cis)-6,6-Difluoro-4-(((S*)-6-(3-fluoro-2-methylphenyl)-5-(methoxycarbonyl)-2-(thiazol-2-yl)-3,6-dihydropyrimidin-4-yl)methyl)hexahydropyrrolo[3,2-b]pyrrol-1(2H)-yl)-2-methylpropanoic acid], for which, in the data set on HBV, the EC50 was 0.0005 µM. This molecule displayed a 50% cytotoxic concentration (CC50) at 6 days in data set [1] of 44.6 µM.
For `COC(=O)C1=C(CN2CC(F)(F)[C@H]3[C@@H]2CCN3C[C@@H](C)C(=O)O)NC(c2nccs2)=N[C@H]1c1cccc(F)c1Cl` (single isomer, unassigned) [Compound 132A, 3-((cis)-4-((6-(2-Chloro-3-fluorophenyl)-5-(methoxycarbonyl)-2-(thiazol-2-yl)-3,6-dihydropyrimidin-4-yl)methyl)-6,6-difluorohexahydropyrrolo[3,2-b]pyrrol-1(2H)-yl)-2-methylpropanoic acid], the EC50 with HBV (setting [2]) was less than 0.0005 µM. Further, half-maximal cytotoxicity in data set [1] (CC50 at 6 days) was put at 40.7 µM.
The corresponding values for `COC(=O)C1=C(CN2CC(F)(F)[C@H]3[C@@H]2CCN3C[C@H](C)C(=O)O)NC(c2nccs2)=N[C@H]1c1cccc(F)c1Cl` (single isomer, unassigned) [Compound 132B, 3-((cis)-4-((6-(2-Chloro-3-fluorophenyl)-5-(methoxycarbonyl)-2-(thiazol-2-yl)-3,6-dihydropyrimidin-4-yl)methyl)-6,6-difluorohexahydropyrrolo[3,2-b]pyrrol-1(2H)-yl)-2-methylpropanoic acid] are 0.0107 µM and 71.8 µM.
In the same order, the values of `COC(=O)C1=C(CN2CC(F)(F)[C@H]3[C@@H]2CCN3C[C@@H](C)C(=O)O)NC(c2nccs2)=N[C@H]1c1ccc(F)cc1Cl` (single isomer, unassigned) [Compound 133A, 3-((cis)-4-((6-(2-Chloro-4-fluorophenyl)-5-(methoxycarbonyl)-2-(thiazol-2-yl)-3,6-dihydropyrimidin-4-yl)methyl)-6,6-difluorohexahydropyrrolo[3,2-b]pyrrol-1(2H)-yl)-2-methylpropanoic acid] are less than 0.0005 µM and 41.7 µM.
Turning to `COC(=O)C1=C(CN2CC(F)(F)[C@H]3[C@@H]2CCN3C[C@@H](C)C(=O)O)NC(c2nccs2)=N[C@H]1c1ccc(F)c(F)c1Cl` (single isomer, unassigned) [Compound 134A, 3-((cis)-4-((6-(2-chloro-3,4-difluorophenyl)-5-(methoxycarbonyl)-2-(thiazol-2-yl)-3,6-dihydropyrimidin-4-yl)methyl)-6,6-difluorohexahydropyrrolo[3,2-b]pyrrol-1(2H)-yl)-2-methylpropanoic acid], the EC50 in the data set on HBV (setting [2]) was less than 0.0005 µM. Half-maximal cytotoxicity in data set [1] (CC50 at 6 days) was put at 26.9 µM.
The corresponding values for `COC(=O)C1=C(CN2CC(F)(F)[C@H]3[C@@H]2CCN3C[C@H](C)C(=O)O)NC(c2nccs2)=N[C@H]1c1ccc(F)c(F)c1Cl` (single isomer, unassigned) [Compound 134B, 3-((cis)-4-((6-(2-chloro-3,4-difluorophenyl)-5-(methoxycarbonyl)-2-(thiazol-2-yl)-3,6-dihydropyrimidin-4-yl)methyl)-6,6-difluorohexahydropyrrolo[3,2-b]pyrrol-1(2H)-yl)-2-methylpropanoic acid] are 0.0043 µM and 24.2 µM.
For `CCOC(=O)C1=C(CN2CC(F)(F)[C@H]3[C@@H]2CCN3C[C@@H](C)C(=O)O)NC(c2nccs2)=N[C@H]1c1ccc(F)cc1Cl` (single isomer, unassigned) [Compound 135A, 3-((cis)-4-((6-(2-chloro-4-fluorophenyl)-5-(ethoxycarbonyl)-2-(thiazol-2-yl)-3,6-dihydropyrimidin-4-yl)methyl)-6,6-difluorohexahydropyrrolo[3,2-b]pyrrol-1(2H)-yl)-2-methylpropanoic acid], the EC50 with HBV (setting [2]) worked out at 0.0024 µM. For the same molecule, the 50% cytotoxic concentration (CC50) at 6 days in data set [1] came out at 25.9 µM.
In the same order, the values of `CCOC(=O)C1=C(CN2CC(F)(F)[C@H]3[C@@H]2CCN3C[C@H](C)C(=O)O)NC(c2nccs2)=N[C@H]1c1ccc(F)cc1Cl` (single isomer, unassigned) [Compound 135B, 3-((cis)-4-((6-(2-chloro-4-fluorophenyl)-5-(ethoxycarbonyl)-2-(thiazol-2-yl)-3,6-dihydropyrimidin-4-yl)methyl)-6,6-difluorohexahydropyrrolo[3,2-b]pyrrol-1(2H)-yl)-2-methylpropanoic acid] are 0.0099 µM and 36.3 µM.
Consider `COC(=O)C1=C(CN2CC(F)(F)[C@H]3[C@@H]2CCN3CCC(C)(C)C(=O)O)NC(c2nccs2)=N[C@H]1c1cccc(F)c1C` (single isomer, unassigned) [Compound 136, 4-((cis)-6,6-difluoro-4-((6-(3-fluoro-2-methylphenyl)-5-(methoxycarbonyl)-2-(thiazol-2-yl)-3,6-dihydropyrimidin-4-yl)methyl)hexahydropyrrolo[3,2-b]pyrrol-1(2H)-yl)-2,2-dimethylbutanoic acid], for which the EC50 with HBV (setting [2]) is 0.0021 µM. In data set [1], this molecule yielded a half-maximal cytotoxic concentration (CC50) at 6 days of 34.4 µM.
In the same order, the values of `[2H]C([2H])(CC(C)(C)C(=O)O)N1CC[C@H]2[C@@H]1C(F)(F)CN2CC1=C(C(=O)OCC)[C@H](c2cccc(F)c2C)N=C(c2nccs2)N1` (single isomer, unassigned) [Compound 137] are 0.001 µM and 21.8 µM.
The corresponding values for `CCOC(=O)C1=C(CN2CC(F)(F)[C@H]3[C@@H]2CCN3CCC(C)(C)C(=O)O)NC(c2nccs2)=N[C@H]1c1ccc(F)c(F)c1Cl` (single isomer, unassigned) [Compound 138, 4-((cis)-4-((6-(2-chloro-3,4-difluorophenyl)-5-(ethoxycarbonyl)-2-(thiazol-2-yl)-3,6-dihydropyrimidin-4-yl)methyl)-6,6-difluorohexahydropyrrolo[3,2-b]pyrrol-1(2H)-yl)-2,2-dimethylbutanoic acid] are 0.0005 µM and 14.5 µM.
The corresponding values for `CCOC(=O)C1=C(CN2CC(F)(F)[C@H]3[C@@H]2CCN3CCC(C)(C)C(=O)O)NC(c2nccs2)=N[C@@H]1c1ccc(F)c(F)c1C` (single isomer, unassigned) [Compound 139, 4-((cis)-4-((6-(3,4-difluoro-2-methylphenyl)-5-(ethoxycarbonyl)-2-(thiazol-2-yl)-3,6-dihydropyrimidin-4-yl)methyl)-6,6-difluorohexahydropyrrolo[3,2-b]pyrrol-1(2H)-yl)-2,2-dimethylbutanoic acid] are 0.0006 µM and 16.1 µM.
For the molecule `CCOC(=O)C1=C(CN2CC(F)(F)[C@H]3[C@@H]2CCN3CCC(C)(C)C(=O)O)NC(c2nccs2)=N[C@@H]1c1ccc(F)c(F)c1F` (single isomer, unassigned) [Compound 140, (cis)-4-(4-((5-(ethoxycarbonyl)-2-(thiazol-2-yl)-6-(2,3,4-trifluorophenyl)-3,6-dihydropyrimidin-4-yl)methyl)-6,6-difluorohexahydropyrrolo[3,2-b]pyrrol-1(2H)-yl)-2,2-dimethylbutanoic acid], in the data set on HBV (setting [2]), the concentration giving a half-maximal response (EC50) was determined as 0.007 µM. For the same molecule, it took 36.7 µM to reach half-maximal cytotoxicity in data set [1] (CC50 at 6 days).
In the same order, the values of `CCOC(=O)C1=C(CN2CC(F)(F)[C@H]3[C@@H]2CCN3CCC(C)(C)C(=O)O)NC(c2nccs2)=N[C@H]1c1ccc(F)cc1Cl` (single isomer, unassigned) [Compound 141] are 0.0035 µM and 26.7 µM.
The corresponding values for `CCOC(=O)C1=C(CN2CC(F)(F)[C@H]3[C@@H]2CCN3CCC(C)(C)C(=O)O)NC(c2nccs2)=N[C@H]1c1cccc(F)c1F` (single isomer, unassigned) [Compound 142] are 0.008 µM and more than 25 µM.
The corresponding values for `CCOC(=O)C1=C(CN2CC(F)(F)[C@H]3[C@@H]2CCN3C[C@H]2C[C@H](C(=O)O)C2)NC(c2nccs2)=N[C@H]1c1cccc(F)c1C` (single isomer, unassigned) [Compound 143A] are 0.0011 µM and 19.2 µM.
Turning to `CCOC(=O)C1=C(CN2CC(F)(F)[C@H]3[C@@H]2CCN3C[C@H]2C[C@@H](C(=O)O)C2)NC(c2nccs2)=N[C@H]1c1cccc(F)c1C` (single isomer, unassigned) [Compound 143B], in the data set with HBV (setting [2]), the EC50 came out at 0.0046 µM. The same molecule had a CC50 at 6 days in data set [1] of 22.8 µM.
The corresponding values for `CCOC(=O)C1=C(CN2CC(F)(F)[C@H]3[C@@H]2CCN3CCCC(C)(C)C(=O)O)NC(c2nccs2)=N[C@H]1c1cccc(F)c1C` (single isomer, unassigned) [Compound 144] are 0.0198 µM and 20.2 µM.
